Literature values as cited in publication PMC11337105, “Identification of 2-(N-aryl-1,2,3-triazol-4-yl) quinoline derivatives as antitubercular agents endowed with InhA inhibitory activity” (Frontiers in Chemistry, 2024).
≈ marks a conversion by molar mass, not a printed value.

Test system: MTB
Settings: MTB H37Rv; ref Boechat et al., 2011; cited from earlier work

O=C(N/N=C/c1cn(-c2ccc(Cl)cc2)nn1)c1ccncc1 [compound VI]
MIC, MTB H37Rv strain: 0.62 µg/mL (≈ 1.9 µM)
